Measurements taken from patent publication US20220133894A1, “BISPHOSPHONATE-LINKED COMPOUNDS” (OREGON HEALTH & SCIENCE UNIVERSITY, priority 2019, published 2022).

Tests used:
[1] = system: prostate specific antigen (PSA); experiment: PSA expression by qRT/PCR in LNCaP cells; type: cell-based, human; settings: LNCaP cells in androgen depleted media
Experimental: Cells were cultured in media depleted of androgen and after a washout of 72 hrs were treated with the synthetic androgen R1881, KBU2046, enzalutamide and/or vehicle (control), and resultant effects upon induction of the androgen-responsive gene, prostate specific antigen (PSA) were measured (FIG. 3A).
LNCaP or VCaP cells cultured in hormone free media were treated with R1881 (R), KBU2046 (46) and/or enzalutamide (E). (FIGS. 3A and 3B) Effects on AR-responsive gene expression. PSA expression was measured by qRT/PCR, normalized to GAPDH and expressed as a percent of control cells (N=3 replicates); * denotes P<0.05 for groups separated by bar. (FIGS. 3C and 3D) Effects on cell growth. Three day growth assays were performed. Data are the number of viable cells, expressed as % of control (N=3 replicates); * P<0.05 compared to control. (E) Effects on AR activation. Western blots of nuclear (N) and cytoplasmic (C) preparations of cell extracts were probed for AR, laminin 1 or α-tubulin. (FIGS. 3F and 3G) Effects on tumor outgrowth after androgen deprivation therapy. LNCaP/AR-luc cells were implanted subcutaneously (N=6 mice/cohort) or orthotopic (N=15 mice/cohort were implanted; N=5 yielded tumors) into castrate mice, treatment with KBU2046 began as noted, and weekly IVIS imaging performed. Data are tumor size, expressed as luminescence intensity. All data are expressed as mean±SEM.
RNA was isolated and qRT/PCR performed as previously described by us (Ding et al., J Biomol Tech 18, 321-330 (2007)). Resultant data were analyzed using the 2^−ΔΔt method (Livak et al., Methods 25, 402-408 (2001)), normalized to GAPDH, for the following primer/probe sets (ABI) PSA (Hs02576345_m1) and GAPDH (Hs99999905_m1). Assays were performed in triplicate, and were repeated.

PC3-luc cells = experiment: PCa intracardiac injection model, bone destruction by CT and survival; type: in vivo, mice; settings: oral 150 mg KBU2046/kg daily; intraperitoneal ZA 100 μg/kg weekly; CT
PC3-M cells = experiment: three-day MTT cell growth assay, chemotherapy with or without KBU2046; type: cell-based, human; settings: 10 μM KBU2046, 3 day growth assay, androgen independent PC3-M cells
Experimental: FIG. 1A depicts the effect of chemotherapy on the growth of androgen independent PC3-M PCa cells in vitro. Data are the mean±SEM (N=3 replicates) of cell viability in a 3 day growth assay in the presence of 10 μM KBU2046 or vehicle (control) treated with docetaxel or cabazitaxel. FIG. 1B depicts the effect of chemotherapy on the growth of androgen independent PCa cells in vivo. Mice received subcutaneous implants of PC3-M cells, were monitored until tumors were detectable (250 mm^3), and then treated daily with oral 80 mg KBU2046/kg (46) or vehicle (CO) and with weekly intraperitoneal docetaxel (doc) at 0 or 20 mg/kg, beginning on day 1, and tumor size measured. Data are mean±SEM, with N=20 mice per cohort.
To assess the impact of cytotoxic chemotherapy on PCa growth kinetics seven-day soft agar colony formation assays and three-day MTT cell growth inhibition assays were performed as described by us (Pavese et al., Cancer Lett 352, 179-186 (2014)). MTT assays were in replicates of N=3, and were repeated, soft agar assays were in replicates of N=2 and are presented as mean number of colonies, expressed as percent of untreated controls.

In the case of O=C1c2ccccc2OCC1c1ccc(F)cc1 (stereo not shown) [KBU2046, 3-(4-fluorophenyl)chroman-4-one], the PSA expression [1] is reported as “no significant effect”, the “improvement of femur bone density compared to control” value (PC3-luc cells) is reported as 22±2.4% and the “inhibition of bone destruction in the mandible compared to control” value (PC3-luc cells) is reported as 33±4.2%. For the same compound, the “effect of KBU2046 on the ability of docetaxel or cabazitaxel to inhibit cell growth” value (PC3-M cells) was “did not affect”.
